# Reference: patent US11980607B2, “Methods of treating malignant lymphoproliferative disorders” (Actuate Therapeutics Inc., priority 2018, dated 2024)
# Columns and labels:
# Jeko = experiment: Apoptosis assay (Annexin V/PI), cell survival; type: cell-based; conditions: Homo sapiens; Jeko (MCL), 48 hours
# Description: (§1) Cells were seeded at 5×10^5 cells/well in 24 well plates, and incubated with 9-ING-41 at indicated concentrations for 48 hours. The cells were then stained with FITC conjugated Annexin V (Life Technologies) and Propidium Iodide followed by analysis on a BD FACS Calibur flow cytometer.
# (§2) The IC50S of 9-ING-41 on cell survival and proliferation was calculated using an on-line IC50 calculation tool (https://www.aatbio.com/tools/ic50-calculator/).
# (§3) Given that both GSK3α and GSK3β are overexpressed in lymphoma cells, and that both enzymes are implicated in multiple signaling pathways critical for cell functions, whether GSK3α and GSK3β are functionally supporting the survival and proliferation of lymphoma cells was examined. […] The inhibitory concentrations of 9-ING-41 at half of the maximal effect (IC50) on cell survival of various lymphoma cell lines was calculated (Table 1).
# Karpas-299 = experiment: Apoptosis assay (Annexin V/PI), cell survival; type: cell-based; conditions: Homo sapiens; Karpas-299 (TCL), 48 hours
# Description: as §1, §2, §3
# Mino = experiment: Apoptosis assay (Annexin V/PI), cell survival; type: cell-based; conditions: Homo sapiens; Mino (MCL), 48 hours
# Description: as §1, §2, §3
# OCI-LY1 = experiment: Apoptosis assay (Annexin V/PI), cell survival; type: cell-based; conditions: Homo sapiens; OCI-LY1 (DLBCL), 48 hours
# Description: as §1, §2, §3
# OCI-Ly3 = experiment: Apoptosis assay (Annexin V/PI), cell survival; type: cell-based; conditions: Homo sapiens; OCI-Ly3 (DLBCL), 48 hours
# Description: as §1, §2, §3
# [1] = test system: phospho-c-MYC in KPUM-UH1 cells; experiment: Western blot analysis of c-MYC; type: cell-based; conditions: KPUM-UH1 double-hit lymphoma cell line
# Description: c-MYC levels were analyzed in KPUM-UH1 cells via western blot for 9-ING-41 alone and the combination of 9ING-41 with either Venetoclax or BAY-1143572. Around 10 million cells were spun down at 200 rcf for 5 minutes and rinsed once with PBS before lysing in 50 μl of Millipore Milliplex MAP lysis buffer supplemented with protease and phosphatase inhibitors (Roche). Protein denatured in 4× sample buffer supplemented with β-mercaptoethanol (Bio-Rad) was loaded per well. Bio-Rad stain-free Criterion 4-20% precast gels were used. After running the gel at 140 volts for 90 minutes, Bio-Rad gel imager was used to activate the stain-free technology to visualize the total protein levels loaded in the gel. A nitrocellulose turbo-transfer pack and system (Bio-Rad) was then used to transfer the proteins to the membrane, and 5% w/v dry milk in Tris-buffered saline-0.1% Tween 20 (TBS-T) was used to block the membranes for 1 hour. Membranes were then incubated with the primary antibody diluted in 5% BSA in TBS-T overnight. Membranes were then rinsed in TBS-T 3 times (one 15 minute wash and two 5 minutes washes) and then incubated with the corresponding secondary antibody-conjugated with HRP for 1 hour and rinsed with TBS-T as before. […] Quantification of the band intensities were performed using Image J software (NIH).
# TCL and MCL lines = experiment: Thymidine incorporation assay in TCL and MCL lines; type: cell-based, human; conditions: 9-ING-41 concentrations as low as 1.0 μM
# Description: Unstimulated peripheral blood B- and T-lymphocytes isolated from a healthy donor were used as normal control. Pro-apoptotic effect of the GSK3 inhibitor 9-ING-41 in various MCL and TCL lines (A) and DLBCL lines (B). (C) Cell proliferation profile of various lymphoma cell lines upon treatment with 9-ING-41. Results (A-C) are from 3 independent experiments.
# Cells were seeded at 1×10^4 cells/well in 96 well plates, and incubated with 9-ING-41 at indicated concentrations for 48 hours followed by pulsing with tritium labeled thymidine for overnight before being analyzed for thymidine uptake.
# 9-ING-41 can specifically induce lymphoma cell apoptosis without affecting normal lymphocytes. The thymidine incorporation assay in the presence or absence of 9-ING-41 was performed to test the role of GSK3 in lymphoma cell proliferation. […] The DLBCL lines required slightly higher concentrations. The IC50 of 9-ING-41 on cell proliferation for various lymphoma cell lines was calculated (Table 1).
# [2] = test system: lymphoma cell lines (Jeko, Mino, OCI-Ly3); experiment: DNA cell cycle analysis; type: cell-based, human; conditions: after as little as 24 hours of treatment, all lines tested
# Description: (B) Cell cycle profiles of parental Ly-1 cells and GSK3α, GSK3β, GSK-3αβ knockout subclones. Inset: Western blot image showing the depletion of GSK3α and GSK-3β protein in the knockout Ly-1 subclones.
# Cells were fixed and permeabilized with cold ethanol, treated with RNase, and stained with propidium iodide (Sigma). Stained cells were run on a BD FACS Calibur using CELLQuest PRO Software (Becton Dickinson). Data were analyzed with FlowJo v.X software (Tree Star Inc).
# The effect of 9-ING-41 on lymphoma cell cycle kinetics was examined. […] To further determine whether this G2/M arrest specifically resulted from GSK3β inhibition, the cell cycle profile of parental (wildtype), GSK3A, GSK3B, and GSK3A/B knockout Ly-1 subclones was examined. […] These cell cycle abnormalities of GSK3B-null and GSK3A/B-null Ly-1 cells are subtle and have little impact on the survival of the Ly-1 progeny, likely through Ly-1 cell line specific compensatory mechanisms.
structure (smiles),measurement,setting,value
"Cn1cc(C2=C(c3coc4ccc(F)cc34)C(=O)NC2=O)c2cc3c(cc21)OCO3 [9-ING-41, 3-(5-Fluorobenzofuran-3-yl)-4-(5-methyl-5H-[1,3]dioxolo[4,5-f]indol-7-yl)pyrrole-2,5-dione]",IC50,Jeko,1.28 µM
same,IC50,Karpas-299,3.34 µM
same,IC50,Mino,0.55 µM
same,IC50,OCI-LY1,3.05 µM
same,IC50,OCI-Ly3,3.76 µM
same,Effect on phospho-c-MYC,[1],phospho-c-MYC is modified
same,Proliferation rate of all TCL and MCL lines,TCL and MCL lines,profoundly inhibited
same,Cell cycle effect,[2],cell cycle blockage at G2/M
